According to PMC10006169, “A phase I trial of LXS196, a protein kinase C (PKC) inhibitor, for metastatic uveal melanoma” (British Journal of Cancer, 2023):
Like-named read-outs stand apart in the source and are kept apart here.

Assay: Plasma pharmacokinetics (LC-MS/MS)
Type: in vivo, human
Details: human, plasma; for concentration at 15 day: read-out: Cmin, Median (Min, max)
Description: In the dose escalation part of the study, PK samples were collected at various pre- and post-dose time points on C1D1, D2, D3, D15 and D16. Drug concentrations were assessed using a validated liquid chromatography-tandem mass spectrometry assay.

## CC1(N)CCN(c2cccnc2NC(=O)c2nc(-c3ncccc3C(F)(F)F)cnc2N)CC1 [LXS196]
oral, 500 mg, C1D1, 500 mg QD, n=10, read-out: AUC0-t, Median (Min, max)
  AUC(0-t): 50700 ng·h/mL
oral, 500 mg, C1D1, 500 mg QD, n=10, read-out: AUCinf, Geo-mean
  AUC(0-inf): 59500 ng·h/mL
oral, 500 mg, C1D1, 500 mg QD, n=10, read-out: AUCinf, Mean (SD)
  AUC(0-inf): 63400 ng·h/mL
oral, 500 mg, C1D1, 500 mg QD, n=10, read-out: AUCinf, Median (Min, max)
  AUC(0-inf): 61700 ng·h/mL
oral, 500 mg, C1D1, 500 mg QD, n=10, read-out: Cmax, Geo-mean
  Cmax: 4670 ng/mL
oral, 500 mg, C1D1, 500 mg QD, n=10, read-out: Cmax, Mean (SD)
  Cmax: 4970 ng/mL
oral, 500 mg, C1D1, 500 mg QD, n=10, read-out: Cmax, Median (Min, max)
  Cmax: 4380 ng/mL
oral, 500 mg, C1D1, 500 mg QD, n=10, read-out: T1/2, Geo-mean (converted)
  half-life: 10.1 h
oral, 500 mg, C1D1, 500 mg QD, n=10, read-out: T1/2, Mean (SD) (converted)
  half-life: 10.2 h
oral, 500 mg, C1D1, 500 mg QD, n=10, read-out: T1/2, Median (Min, max) (converted)
  half-life: 10.1 h
oral, 500 mg, C1D1, 500 mg QD, n=10, read-out: Tmax, Median (Min, max)
  Tmax: 1.03 h
oral, 500 mg, C1D15, 500 mg QD, n=9, read-out: AUC0-t, Geo-mean
  AUC(0-t): 43100 ng·h/mL
oral, 500 mg, C1D15, 500 mg QD, n=9, read-out: AUC0-t, Mean (SD)
  AUC(0-t): 45700 ng·h/mL
oral, 500 mg, C1D15, 500 mg QD, n=9, read-out: AUC0-t, Median (Min, max)
  AUC(0-t): 41700 ng·h/mL
oral, 500 mg, C1D15, 500 mg QD, n=9, read-out: Cmax, Geo-mean
  Cmax: 3870 ng/mL
oral, 500 mg, C1D15, 500 mg QD, n=9, read-out: Cmax, Mean (SD)
  Cmax: 4170 ng/mL
oral, 500 mg, C1D15, 500 mg QD, n=9, read-out: Cmax, Median (Min, max)
  Cmax: 3700 ng/mL
oral, 500 mg, C1D15, 500 mg QD, n=9
  concentration at 15 day: 643 ng/mL
oral, 500 mg, C1D15, 500 mg QD, n=9, read-out: Tmax, Median (Min, max)
  Tmax: 1.07 h
oral, 800 mg, C1D1, 800 mg QD, n=1, read-out: AUC0-t, Geo-mean
  AUC(0-t): 54300 ng·h/mL
oral, 800 mg, C1D1, 800 mg QD, n=1, read-out: AUC0-t, Mean (SD)
  AUC(0-t): 54300 ng·h/mL
oral, 800 mg, C1D1, 800 mg QD, n=1, read-out: AUC0-t, Median (Min, max)
  AUC(0-t): 54300 ng·h/mL
oral, 800 mg, C1D1, 800 mg QD, n=1, read-out: AUCinf, Geo-mean
  AUC(0-inf): 66200 ng·h/mL
oral, 800 mg, C1D1, 800 mg QD, n=1, read-out: AUCinf, Mean (SD)
  AUC(0-inf): 66200 ng·h/mL
oral, 800 mg, C1D1, 800 mg QD, n=1, read-out: AUCinf, Median (Min, max)
  AUC(0-inf): 66200 ng·h/mL
oral, 800 mg, C1D1, 800 mg QD, n=1, read-out: Cmax, Geo-mean
  Cmax: 6080 ng/mL
oral, 800 mg, C1D1, 800 mg QD, n=1, read-out: Cmax, Mean (SD)
  Cmax: 6080 ng/mL
oral, 800 mg, C1D1, 800 mg QD, n=1, read-out: Cmax, Median (Min, max)
  Cmax: 6080 ng/mL
oral, 800 mg, C1D1, 800 mg QD, n=1, read-out: T1/2, Geo-mean (converted)
  half-life: 8.85 h
oral, 800 mg, C1D1, 800 mg QD, n=1, read-out: T1/2, Mean (SD) (converted)
  half-life: 8.85 h
oral, 800 mg, C1D1, 800 mg QD, n=1, read-out: T1/2, Median (Min, max) (converted)
  half-life: 8.85 h
oral, 800 mg, C1D1, 800 mg QD, n=1, read-out: Tmax, Median (Min, max)
  Tmax: 0.483 h
oral, 1000 mg, C1D1, 1000 mg QD, n=3, read-out: AUCinf, Geo-mean
  AUC(0-inf): 75700 ng·h/mL
oral, 1000 mg, C1D1, 1000 mg QD, n=3, read-out: AUCinf, Mean (SD)
  AUC(0-inf): 78000 ng·h/mL
oral, 1000 mg, C1D1, 1000 mg QD, n=3, read-out: AUCinf, Median (Min, max)
  AUC(0-inf): 66000 ng·h/mL
oral, 1000 mg, C1D1, 1000 mg QD, n=3, read-out: T1/2, Geo-mean (converted)
  half-life: 9.94 h
oral, 1000 mg, C1D1, 1000 mg QD, n=3, read-out: T1/2, Mean (SD) (converted)
  half-life: 10 h
oral, 1000 mg, C1D1, 1000 mg QD, n=3, read-out: T1/2, Median (Min, max) (converted)
  half-life: 9.32 h
oral, 1000 mg, C1D1, 1000 mg QD, n=4, read-out: AUC0-t, Geo-mean
  AUC(0-t): 69700 ng·h/mL
oral, 1000 mg, C1D1, 1000 mg QD, n=4, read-out: AUC0-t, Mean (SD)
  AUC(0-t): 74300 ng·h/mL
oral, 1000 mg, C1D1, 1000 mg QD, n=4, read-out: AUC0-t, Median (Min, max)
  AUC(0-t): 70100 ng·h/mL
oral, 1000 mg, C1D1, 1000 mg QD, n=4, read-out: Cmax, Geo-mean
  Cmax: 5080 ng/mL
oral, 1000 mg, C1D1, 1000 mg QD, n=4, read-out: Cmax, Mean (SD)
  Cmax: 5410 ng/mL
oral, 1000 mg, C1D1, 1000 mg QD, n=4, read-out: Cmax, Median (Min, max)
  Cmax: 5230 ng/mL
oral, 1000 mg, C1D1, 1000 mg QD, n=4, read-out: Tmax, Median (Min, max)
  Tmax: 2 h
oral, 1000 mg, C1D15, 1000 mg QD, n=2, read-out: AUC0-t, Geo-mean
  AUC(0-t): 48000 ng·h/mL
oral, 1000 mg, C1D15, 1000 mg QD, n=2, read-out: AUC0-t, Mean (SD)
  AUC(0-t): 48300 ng·h/mL
oral, 1000 mg, C1D15, 1000 mg QD, n=2, read-out: AUC0-t, Median (Min, max)
  AUC(0-t): 48300 ng·h/mL
oral, 1000 mg, C1D15, 1000 mg QD, n=2, read-out: Cmax, Geo-mean
  Cmax: 4870 ng/mL
oral, 1000 mg, C1D15, 1000 mg QD, n=2, read-out: Cmax, Mean (SD)
  Cmax: 5110 ng/mL
oral, 1000 mg, C1D15, 1000 mg QD, n=2, read-out: Cmax, Median (Min, max)
  Cmax: 5110 ng/mL
oral, 1000 mg, C1D15, 1000 mg QD, n=2
  concentration at 15 day: 674 ng/mL
oral, 1000 mg, C1D15, 1000 mg QD, n=2, read-out: Tmax, Median (Min, max)
  Tmax: 0.792 h
oral, across different doses, read-out: Terminal T1/2 (converted)
  half-life: ~11 h
oral, fasting, 100–1000 mg QD and 200–400 mg BID, read-out: Tmax
  Tmax: ~1 h
po, D1 and D15, read-out: Median Tmax, range across dose groups
  Tmax: 0.483 to 2 h
po, read-out: Mean terminal half-life (T1/2), range across dose groups
  half-life: 8.49 to 13.8 h
